Experimental data as given in patent publication US10206909B2, “3-(1H-pyrrolo[2,3-B]pyridin-2-yl)-1H-pyrazolo[4,3-B]pyridines and therapeutic uses thereof” (Samumed, LLC, priority 2015, dated 2019).
pEC50: −log10 of the molar value.

System: IL-6 (THP-1 cells)
Test: IL-6 inhibition in LPS-stimulated THP-1 cells (HTRF)
Assay type: cell-based
Conditions: Homo sapiens; for pEC50: THP-1 cells, LPS 500 ng/mL, 22 hours, IL6 HTRF; for inhibition at 10 µM: given where EC50 >10 μM, THP-1, IL6, read-out: percent inhibition at 10 μM
Method: Human Monocyte Cell Culture: Human monocyte cell line (THP-1 cells; Catalog # TIB-202, ATCC, Manassas, Va.) were cultured in Roswell Park Memorial Institute (RPMI) 1640 Medium (Catalog #21870-100, Buffalo, N.Y.) with 1% L-glutamine, 1% HEPES, 1% Sodium Pyruvate, 2% Sodium Bicarbonate supplemented with 100 units/mL penicillin, 50 μg/mL streptomycin, 2-mercaptoethanol (0.05 mM) [basal medium] and 10% fetal bovine serum (Catalog #16140089, Life Technologies, Carlsbad, Calif.) at 37° C. and 5% CO2.
Compound Screening: THP-1 cells were cultured in basal media with 1% FBS for 24 hours before the start of the assay. Each compound was dissolved in DMSO as a 10 mM stock and used to prepare compound source plates. Serial dilution (1:3, 10-point dose-response curves starting from 10 μM) and compound transfer was performed using the ECHO 550 (Labcyte, Sunnyvale, Calif.) into 384-well white low volume assay plates (Greiner Bio-One) with appropriate DMSO backfill for a final DMSO concentration of 0.1%. THP-1 cells were plated at 5000 cells/well in the 384-well plates and incubated at 37° C. for 2 h. 500 ng/mL of LPS was added after 2 hours and cells were incubated for another 22 hours at 37° C. Plates were spun in a centrifuge for 1 minute at […] and a mixture of anti-IL6 XL665, and anti-IL6 Cryptate diluted in reconstitution buffer (Cisbio Inc.) was added to each well. Following incubation for 3 hrs at room temperature, Homogeneous Time-Resolved Fluorescence (HTRF) was measured using the Envision (Perkin Elmer) at 665 nm and […]. The ratio of fluorescence at 665 nm to 620 nm was used as a readout for IL6 quantification. All samples were processed in duplicate. Readings were normalized to DMSO treated cells and normalized activities were utilized for EC50 calculations using the dose-response log (inhibitor) vs. response —variable slope (four parameters) nonlinear regression feature available in GraphPad Prism 5.0 (or Dotmatics). For EC50 of >10 μM, the percent inhibition at 10 μM is provided.

pEC50 | SMILES | inhibition at 10 µM [%]
< 5.00 | Oc1cncc(-c2ccc3[nH]nc(-c4cc5c(-c6ccc(F)cc6)ccnc5[nH]4)c3n2)c1 [Compound 533, 5-(3-(4-(4-Fluorophenyl)-1H-pyrrolo[2,3-b]pyridin-2-yl)-1H-pyrazolo[4,3-b]pyridin-5-yl)pyridin-3-ol] | 37.1
< 5.00 | c1cc(N2CCCCC2)c2cc(-c3n[nH]c4ccc(-c5cncc(CN6CCCCC6)c5)nc34)[nH]c2n1 [Compound 183, 3-(4-(Piperidin-1-yl)-1H-pyrrolo[2,3-b]pyridin-2-yl)-5-(5-(piperidin-1-ylmethyl)pyridin-3-yl)-1H-pyrazolo[4,3-b]pyridine] | 18.2
< 5.00 | c1ccc(-c2ccc3[nH]nc(-c4cc5c(N6CCCCC6)ccnc5[nH]4)c3n2)nc1 [Compound 196, 3-(4-(Piperidin-1-yl)-1H-pyrrolo[2,3-b]pyridin-2-yl)-5-(pyridin-2-yl)-1H-pyrazolo[4,3-b]pyridine] | 46.5
6.80 | O=C(Nc1cncc(-c2ccc3[nH]nc(-c4cc5cccnc5[nH]4)c3n2)c1)C1CCCCC1 [Compound 275, N-(5-(3-(1H-Pyrrolo[2,3-b]pyridin-2-yl)-1H-pyrazolo[4,3-b]pyridin-5-yl)pyridin-3-yl)cyclohexanecarboxamide] | –
8.22 | Fc1ccccc1-c1ccnc2[nH]c(-c3n[nH]c4ccc(-c5ccccn5)nc34)cc12 [Compound 84, 3-(4-(2-Fluorophenyl)-1H-pyrrolo[2,3-b]pyridin-2-yl)-5-(pyridin-2-yl)-1H-pyrazolo[4,3-b]pyridine] | –
7.34 | Cn1cc(-c2ccc3[nH]nc(-c4cc5cccnc5[nH]4)c3n2)cn1 [Compound 652, 5-(1-Methyl-1H-pyrazol-4-yl)-3-(1H-pyrrolo[2,3-b]pyridin-2-yl)-1H-pyrazolo[4,3-b]pyridine] | –
5.79 | c1csc(-c2ccnc3[nH]c(-c4n[nH]c5ccc(-c6ccncc6)nc45)cc23)c1 [Compound 354, 5-(Pyridin-4-yl)-3-(4-(thiophen-2-yl)-1H-pyrrolo[2,3-b]pyridin-2-yl)-1H-pyrazolo[4,3-b]pyridine] | –
6.52 | c1csc(-c2ccnc3[nH]c(-c4n[nH]c5ccc(-c6cncc(OC7CCCCC7)c6)nc45)cc23)c1 [Compound 703, 5-(5-(Cyclohexyloxy)pyridin-3-yl)-3-(4-(thiophen-2-yl)-1H-pyrrolo[2,3-b]pyridin-2-yl)-1H-pyrazolo[4,3-b]pyridine] | –
< 5.00 | Fc1cccc(-c2ccnc3[nH]c(-c4n[nH]c5ccc(-c6cncc(OCc7ccccc7)c6)nc45)cc23)c1 [Compound 518, 5-(5-(Benzyloxy)pyridin-3-yl)-3-(4-(3-fluorophenyl)-1H-pyrrolo[2,3-b]pyridin-2-yl)-1H-pyrazolo[4,3-b]pyridine] | 9.6
< 5.00 | c1cncc(-c2ccnc3[nH]c(-c4n[nH]c5ccc(-c6ccncc6)nc45)cc23)c1 [Compound 102, 3-(4-(Pyridin-3-yl)-1H-pyrrolo[2,3-b]pyridin-2-yl)-5-(pyridin-4-yl)-1H-pyrazolo[4,3-b]pyridine] | 23.9
6.38 | CN(C)c1cncc(-c2ccc3[nH]nc(-c4cc5c(-c6ccoc6)ccnc5[nH]4)c3n2)c1 [Compound 315, 5-(3-(4-(Furan-3-yl)-1H-pyrrolo[2,3-b]pyridin-2-yl)-1H-pyrazolo[4,3-b]pyridin-5-yl)-N,N-dimethylpyridin-3-amine] | –
5.46 | c1cc(N2CCCCC2)c2cc(-c3n[nH]c4ccc(C5CCNCC5)nc34)[nH]c2n1 [Compound 601, 3-(4-(Piperidin-1-yl)-1H-pyrrolo[2,3-b]pyridin-2-yl)-5-(piperidin-4-yl)-1H-pyrazolo[4,3-b]pyridine] | –
< 5.00 | c1csc(-c2ccnc3[nH]c(-c4n[nH]c5ccc(-c6cncnc6)nc45)cc23)c1 [Compound 363, 5-(Pyrimidin-5-yl)-3-(4-(thiophen-2-yl)-1H-pyrrolo[2,3-b]pyridin-2-yl)-1H-pyrazolo[4,3-b]pyridine] | 36.3
< 5.00 | O=C(Cc1ccccc1)Nc1cncc(-c2ccc3[nH]nc(-c4cc5c(-c6ccoc6)ccnc5[nH]4)c3n2)c1 [Compound 318, N-(5-(3-(4-(Furan-3-yl)-1H-pyrrolo[2,3-b]pyridin-2-yl)-1H-pyrazolo[4,3-b]pyridin-5-yl)pyridin-3-yl)-2-phenylacetamide] | 46.6

Second part, the molecule before the results:

SMILES | pEC50 | inhibition at 10 µM [%]
O=C(Nc1cncc(-c2ccc3[nH]nc(-c4cc5c(-c6ccccc6F)ccnc5[nH]4)c3n2)c1)C1CC1 [Compound 76, N-(5-(3-(4-(2-Fluorophenyl)-1H-pyrrolo[2,3-b]pyridin-2-yl)-1H-pyrazolo [4,3-b]pyridin-5-yl)pyridin-3-yl)cyclopropanecarboxamide] | < 5.00 | 42.2
CC(C)CC(=O)Nc1cncc(-c2ccc3[nH]nc(-c4cc5c(-c6ccccc6F)ccnc5[nH]4)c3n2)c1 [Compound 58, N-(5-(3-(4-(2-Fluorophenyl)-1H-pyrrolo[2,3-b]pyridin-2-yl)-1H-pyrazolo [4,3-b]pyridin-5-yl)pyridin-3-yl)-3-methylbutanamide] | 7.00 | –
O=C(Nc1cncc(-c2ccc3[nH]nc(-c4cc5c(-c6ccc(F)cc6)ccnc5[nH]4)c3n2)c1)c1ccccc1 [Compound 39, N-(5-(3-(4-(4-Fluorophenyl)-1H-pyrrolo[2,3-b]pyridin-2-yl)-1H-pyrazolo [4,3-b]pyridin-5-yl)pyridin-3-yl)benzamide] | < 5.00 | 7.7
CC(C)(C)C(=O)Nc1cncc(-c2ccc3[nH]nc(-c4cc5c(-c6cccc(F)c6)ccnc5[nH]4)c3n2)c1 [Compound 8, N-(5-(3-(4-(3-Fluorophenyl)-1H-pyrrolo[2,3-b]pyridin-2-yl)-1H-pyrazolo [4,3-b]pyridin-5-yl)pyridin-3-yl)pivalamide] | < 5.00 | 13.7
Fc1ccc(-c2ccnc3[nH]c(-c4n[nH]c5ccc(-c6cncc(CN7CCC(F)(F)C7)c6)nc45)cc23)cc1 [Compound 54, 5-(5-((3,3-Difluoropyrrolidin-1-yl)methyl)pyridin-3-yl)-3-(4-(4-fluorophenyl)-1H-pyrrolo[2,3-b]pyridin-2-yl)-1H-pyrazolo[4,3-b]pyridine] | < 5.00 | 34.8
Fc1ccc(-c2ccnc3[nH]c(-c4n[nH]c5ccc(-c6cncnc6)nc45)cc23)cc1 [Compound 55, 3-(4-(4-Fluorophenyl)-1H-pyrrolo[2,3-b]pyridin-2-yl)-5-(pyrimidin-5-yl)-1H-pyrazolo[4,3-b]pyridine] | < 5.00 | 14.1
Fc1cccc(-c2ccnc3[nH]c(-c4n[nH]c5ccc(-c6cccnc6)nc45)cc23)c1 [Compound 4, 3-(4-(3-Fluorophenyl)-1H-pyrrolo[2,3-b]pyridin-2-yl)-5-(pyridin-3-yl)-1H-pyrazolo[4,3-b]pyridine] | 5.74 | –
Fc1ccccc1-c1ccnc2[nH]c(-c3n[nH]c4ccc(-c5cncc(CNCc6ccccc6)c5)nc34)cc12 [Compound 80, N-Benzyl-1-(5-(3-(4-(2-fluorophenyl)-1H-pyrrolo[2,3-b]pyridin-2-yl)-1H-pyrazolo[4,3-b]pyridin-5-yl)pyridin-3-yl)methanamine] | < 5.00 | 18.2
Cc1ccncc1-c1ccc2[nH]nc(-c3cc4c(-c5ccc(F)cc5)ccnc4[nH]3)c2n1 [Compound 33, 3-(4-(4-Fluorophenyl)-1H-pyrrolo[2,3-b]pyridin-2-yl)-5-(4-methylpyridin-3-yl)-1H-pyrazolo[4,3-b]pyridine] | < 5.00 | 5.4
